{"source": "patent US7744927B2", "about": "“Methods of promoting hematopoietic and mesenchymal cell proliferation and differentiation” (University of Southern California, priority 1997, dated 2010)", "key": {"[1]": {"tested_on": "murine HPC", "test": "Murine HPC colony formation in semi-solid culture with colony stimulating factors", "format": "cell-based, C57B1/6 mice", "details": "for macroscopic colonies: day 14, enriched HPC from untreated (normal) mice", "method": "HPC were harvested from C57B1/6 mice by immunomagnetic affinity chromatography and placed in semi-solid cultures with optimal growth medium. At various times after initiation of culture, the formation of colonies and the size of the colonies (number of cells/colony) was assessed microscopically.\nFemale C57B1/6 mice were purchased from Simonson and used as a source of bone marrow cells in this study. The bone marrow was harvested, either from untreated mice or from mice injected with 5-fluorouracil (5-FU) (3 mg/mouse; approximately 150 mg/kg) in the tail vein 48 hours before harvest, from the femur and tibia of mice by flushing with phosphate buffered saline (PBS), pH 7.4, containing 2% fetal bovine serum (FBS) with a 21-gauge needle. The eluant from the flushing was centrifuged and the pellet was resuspended at 4×10^7 nucleated cells/ml in PBS containing PBS containing 2% FBS and 5% normal rat serum.\nThe reagents for immunomagnetic labeling were purchased from Stem Cell Technologies, Inc. (Vancouver, BC). Biotin-labeled monoclonal antibodies to the following murine lineage-specific cell surface antigens were included in a cocktail for HPC enrichment and used according to the manufacturer's instructions: CD5 (Ly-1), CD45-R (B220), CD11b (Mac-1), Myeloid Differentiation Antigen (Gr-1) and Erythroid Cells (TER 119) Ten μl of antibody cocktail was added for each of the 2 sets of bone marrow (normal and 5-FU-treated), mixed and allowed to incubate at 4° C. for 15 minutes. The cells were then resuspended at 4×10^7 cells/ml in PBS containing 2% FBS. The antibody cocktail was then washed out and 100 μl anti-biotin tetramer was added for each ml of cells. The suspension was mixed and incubated at 4° C. for 15 minutes. Sixty μl of magnetic colloid was then added for each ml of cells, the combination was mixed and incubated at 4° C. for 15 minutes to yield the immunomagnetically-labeled bone marrow cells.\nA column containing a stainless steel matrix was prepared by washing the matrix with PBS followed by washing with PBS containing 2% protein. […]"}, "[2]": {"tested_on": "rat peritoneal macrophages", "test": "Respiratory burst (hydrogen peroxide generation), rat peritoneal macrophages", "format": "cell-based", "details": "alone and in response to PMA 10 ng/ml; 4 hours exposure", "method": "The respiratory burst of leukocytes (macrophages and polymorphonuclear neutrophils) is one component of the mediator system used to kill bacteria. As with phagocytosis, the level of this respiratory burst activity in resident macrophages is low. […] Studies were conducted to assess the effect of in vitro exposure of murine or rat peritoneal macrophages and human peripheral blood mononuclear cells (PBMC) to various concentrations of AII on the capacity to generate hydrogen peroxide via the respiratory burst system. For the human studies, five different donors were examined.\nThe murine or rat peritoneal cells were harvested by lavage with 5-15 ml of cold PBS with 0.5% bovine serum albumin. The human PBMC were harvested by venipuncture from normal human volunteers and isolated from peripheral blood by Ficoll Hypaque density centrifugation. After isolation, the cells were resuspended at 1×10^6 cells/ml and placed at 100 μl per well into 96 well plates. The cells were incubated with various concentrations of AII or AII analogues for 4 hours at 37° C. The cells were then preloaded with a fluorescent probe for hydrogen peroxide, 2,7 dichlorofluorescein acetate, which is nonfluorescent in the absence of hydrogen peroxide. […] One hour after stimulation the level of fluorescence produced was measured on a Cytofluor 2350 multiwell fluorometer."}, "[3]": {"tested_on": "Murine Peritoneal Macrophages", "test": "Phagocytosis of opsonized yeast by murine peritoneal macrophages", "format": "cell-based, C57B1/6 mice", "details": "for # Macrophages with Yeast, Yeast # 0 / # Macrophages with Yeast, Yeast # 1-3 / # Macrophages with Yeast, Yeast # 4-6 / # Macrophages with Yeast, Yeast # 7-9 / # Yeast/MO / % Ingesting: 4 hours", "method": "Resident peritoneal macrophages have very little phagocytic activity. Exposure of macrophages to inflammatory or activating agents will increase this macrophage function. Resident peritoneal macrophages were harvested from C57B1/6 mice or Sprague Dawley rats and resuspended at a concentration of 1×10^6 cells/ml in phosphate buffered saline (PBS). Five separate 0.5 ml cell aliquots were placed on a glass coverslip in a 35 mm petri dish. Prior to incubation, either 0.5 ml of PBS, AII, or AII analogues or fragments at between 1-1000 ug/ml final concentration was added to the individual cover slips. The dishes containing the cover slips were then incubated at 37° C. for 4 hours, after which the cover slips were washed 3 to 6 times with PBS. Opsonized yeast particles (Sigma Chemical Co.) (yeast opsonized with adult serum from the same species as that under study) were added to the cover slips and incubated for 2 hours, after which the cover slips were again washed with PBS and inverted onto a glass slide. The number of macrophages that ingested yeast and the number of yeast per macrophage ingested was then determined microscopically. At least 100 macrophages per coverslip were counted. The data from this study are summarized in Tables 3 and 4 and FIGS. 1 and 2."}}, "data": [{"substance": "Asp-Arg-Val-Tyr-Ile-His-Pro-Phe [AII, known pressor agent, commercially available]", "values": [{"measurement": "HPC colony size / HPC proliferation", "setting": "[1]; 0 to 100 μg/ml, normal and 5-FU treated bone marrow", "value": "HPC colony size increases proportionately"}, {"measurement": "macroscopic colonies", "setting": "[1]; 10 μg/ml", "value": 18}, {"measurement": "macroscopic colonies", "setting": "[1]; 100 μg/ml", "value": 10}, {"measurement": "ability to generate hydrogen peroxide (respiratory burst)", "setting": "[2]", "value": "increased the ability of leukocytes to generate hydrogen peroxide"}, {"measurement": "phagocytic capability of peritoneal macrophages", "setting": "[3]; 10 μg/ml or greater", "value": "tremendously increased"}, {"measurement": "# Macrophages with Yeast, Yeast # 0", "setting": "[3]; AII 1 μg/ml", "value": 100}, {"measurement": "# Macrophages with Yeast, Yeast # 1-3", "setting": "[3]; AII 1 μg/ml", "value": 1}, {"measurement": "# Macrophages with Yeast, Yeast # 4-6", "setting": "[3]; AII 1 μg/ml", "value": 0}, {"measurement": "# Macrophages with Yeast, Yeast # 7-9", "setting": "[3]; AII 1 μg/ml", "value": 0}, {"measurement": "# Yeast/MO", "setting": "[3]; AII 1 μg/ml", "value": 0.01}, {"measurement": "% Ingesting", "setting": "[3]; AII 1 μg/ml", "value": 1, "unit": "%"}, {"measurement": "# Macrophages with Yeast, Yeast # 0", "setting": "[3]; AII 10 μg/ml", "value": 100}, {"measurement": "# Macrophages with Yeast, Yeast # 1-3", "setting": "[3]; AII 10 μg/ml", "value": 3}, {"measurement": "# Macrophages with Yeast, Yeast # 4-6", "setting": "[3]; AII 10 μg/ml", "value": 4}, {"measurement": "# Macrophages with Yeast, Yeast # 7-9", "setting": "[3]; AII 10 μg/ml", "value": 0}, {"measurement": "# Yeast/MO", "setting": "[3]; AII 10 μg/ml", "value": 0.24}, {"measurement": "% Ingesting", "setting": "[3]; AII 10 μg/ml", "value": 6.5, "unit": "%"}, {"measurement": "# Macrophages with Yeast, Yeast # 0", "setting": "[3]; AII 100 μg/ml", "value": 100}, {"measurement": "# Macrophages with Yeast, Yeast # 1-3", "setting": "[3]; AII 100 μg/ml", "value": 10}, {"measurement": "# Macrophages with Yeast, Yeast # 4-6", "setting": "[3]; AII 100 μg/ml", "value": 10}, {"measurement": "# Macrophages with Yeast, Yeast # 7-9", "setting": "[3]; AII 100 μg/ml", "value": 0}, {"measurement": "# Yeast/MO", "setting": "[3]; AII 100 μg/ml", "value": 0.58}, {"measurement": "# Yeast/MO", "setting": "[3]; AII 1000 μg/ml (highest concentration)", "value": 1}, {"measurement": "# Macrophages with Yeast, Yeast # 0", "setting": "[3]; AII 1000 μg/ml", "value": 100}, {"measurement": "# Macrophages with Yeast, Yeast # 1-3", "setting": "[3]; AII 1000 μg/ml", "value": 20}, {"measurement": "# Macrophages with Yeast, Yeast # 4-6", "setting": "[3]; AII 1000 μg/ml", "value": 20}, {"measurement": "# Macrophages with Yeast, Yeast # 7-9", "setting": "[3]; AII 1000 μg/ml", "value": 0}]}]}
